# Tested on: intra-erythrocytic bacterial structures (Mycoplasma haemosapiens)
# Type: in vivo, human
# Conditions: Patient A, during doxycycline 100 mg twice daily; declined from about 16% before therapy
compound,measurement,value
C[C@H]1c2cccc(O)c2C(=O)C2=C(O)[C@]3(O)C(=O)C(C(N)=O)=C(O)[C@@H](N(C)C)[C@@H]3[C@@H](O)[C@@H]21 [doxycycline],percentage of parasitized erythrocytes,approximately 8%
